Measurements from publication PMC9657749, “Cytotoxic Activity and Docking Studies of 2-arenoxybenzaldehyde N-acyl Hydrazone and 1,3,4-Oxadiazole Derivatives against Various Cancer Cell Lines” (Molecules, 2022).

What was measured:
[1] = test system: A549 (lung carcinoma) cells; assay: Cell Titer Glo cell viability assay, A549; format: cell-based; conditions: Homo sapiens, A549, 48 h, 25-300 µM, triplicate, means
Description: (§1) To determine the effect of N-acyl hydrazones and 2,5 substituted 1,3,4-oxadiazole derivatives, a dose-response curve was produced for each and every molecule based on the viability of A549 (lung carcinoma), PC-3 (prostate adenocarcinoma), and MDA-MB-231(breast adenocarcinoma) cancerous cell lines by using the Cell Titer Glo assay. The MRC-5 (lung fibroblast) cell line was used as the non-cancerous control group. For 48 h, the cytotoxic effects of novel derivatives on all of the cell lines were investigated in a dose-dependent manner.
(§2) In this study, four adherent cell lines were used: three from different cancer types and one from a regular fibroblast. The cancerous cells were human breast carcinoma (MDA-MB-231, ATCC code: HTB-26), human prostatic carcinoma (PC-3, ATCC code: CRL-1435), and human lung cancer epithelial cells (A549, ATCC code: CCL-185), while the fibroblasts in the control group were human fetal lung (MRC-5, ATCC code: CCL-171) cells. All cells were checked every few weeks for various sources of contamination.
(§3) […], MRC-5, and PC-3 cell lines were cultured in T75 flasks with high glucose DMEM medium (Pan Biotech, Aidenbach, Germany), and A549 cells were cultured with RPMI-1640 (Pan Biotech) containing 10% fetal bovine serum (Gibco, Waltham, MA, USA), 1% penicillin-streptomycin (Gibco), and 1% L-glutamine (Gibco) at 37 °C with 5% CO2. All the cells were removed from the flask with Trypsin/EDTA 0.25% (Gibco) when they reached 80% density.
(§4) To test the effect of different doses on cells, all types of cells were seeded into 96-well plates at a density of eight thousand cells in 100 µL volume per well. Cells were incubated at 37 °C with 5% CO2 for […]. After 24 h in the incubator, the medium on top of each well was discharged. All of the cells were treated with 25, 50, 100, 200, or 300 µM of fifteen N-acyl hydrazones and twelve 2,5-substituted 1,3,4-oxadiazole in a dose-increasing manner. Molecules were studied in triplicate for each concentration. To assess the viability of non-treated cells, a control group was placed in the setup with only cells and DMSO control treatments without any candidate molecules introduced. Plates were incubated for 48 h, and Cell Titer Glo reagent (Promega) was added on top of each well. Cells were then evaluated in terms of viability with the Cell Titer-Glo Luminescent Cell Viability Assay. Luminescence signals were detected with the SpectraMax i3x Multimode Detection Platform to obtain the cell viability percentages.

[2] = test system: MDA-MB-231 (breast adenocarcinoma) cells; assay: Cell Titer Glo cell viability assay, MDA-MB-231; format: cell-based, human; conditions: MDA-MB-231, 48 h, 25-300 µM, triplicate, means
Description: as §1, §2, §3, §4

[3] = test system: PC-3 (prostate adenocarcinoma) cells; assay: Cell Titer Glo cell viability assay, PC-3; format: cell-based, human; conditions: PC-3, 48 h, 25-300 µM, triplicate, means
Description: as §1, §2, §3, §4

[4] = test system: MRC-5 (lung fibroblast) cells; assay: Cell Titer Glo cell viability assay, MRC-5 non-cancerous control; format: cell-based; conditions: Homo sapiens, MRC5, MRC-5 non-cancerous fibroblasts, 48 h, 25-300 µM, triplicate, means
Description: as §1, §2, §3, §4

A-549 cells = assay: Scratch assay (cell migration), A549; format: cell-based, human; conditions: 55 µM 1d, 15 µM 1e, 15 µM 2a, 0, 24, 48 h
Description: (§5) The dosages for MDA-MB-231 were 40 µM for 1d, 120 µM for 1e, and 30 µM for 2a. The dosages for A-549 were 55 µM for 1d, 15 µM for 1e, and 15 µM for 2a. Three photos were taken: one immediately after the application, one 24 h later, and one 48 h later. The images of each time stamp for all three molecules can be seen in Figure 4 for the A549 cell line and Figure 5 for the MDA-MB-231 cell line.
(§6) To make comparisons, each application was performed in triplicate for all three molecules; the averages and standard deviations were calculated, and the p values were calculated by considering the sample sizes.
(§7) MDA-MB-231 and A-549 cells were seeded for the scratch assay. A total of 100.000 cells were cultured in 1.5 mL complete medium per well on a 6-well plate, as detailed above. The 6-well plates were then incubated for 24 h at 37 °C. After 24 h, accumulated cells were scraped out with the tip of a 200 µL pipette. After discarding the media on top of the cells, the cells were treated for 48 h with three molecules: 1d, 1e, and 2a.
(§8) The dosages for the MDA-MB-231 cell line were 40 µM for 1d, 120 µM for 1e, and 30 µM for 2a. The dosages for the A-549 cell line were 55 µM for 1d, 15 µM for 1e, and 15 µM for 2a.
(§9) The cell states were evaluated under the microscope, and markings were made to obtain photos from the same location during the follow-up. Images of the determined reference points were captured under the microscope immediately after treatment, 24 h later, and 48 h later.

MDA-MB-231 cells = assay: Scratch assay (cell migration), MDA-MB-231; format: cell-based, human; conditions: 40 µM 1d, 120 µM 1e, 30 µM 2a, 0, 24, 48 h
Description: as §5, §6, §7, §8, §9

Row | SMILES | IC50 [1] [µM] | IC50 ([2]; Homo sapiens) [µM] | IC50 ([3]; Homo sapiens, 48 h) [µM] | IC50 [2] [µM] | IC50 [3] [µM] | IC50 [4] [µM] | Antimetastatic effect / wound healing rate, scratch assay (A-549 cells) | Antimetastatic effect / wound healing rate, scratch assay (MDA-MB-231 cells)
1 | Cc1nnsc1C(=O)N/N=C/c1ccccc1Oc1ccc(C#N)cc1 [1j] | 26.6 | 25.9 | 18.4 | – | – | 37.1 | – | –
2 | O=C(N/N=C/c1ccccc1Oc1ccccc1)c1cccnc1 [1c] | 208 | 50.8 | 86 | – | – | 43.5 | – | –
3 | Cc1nnsc1C(=O)N/N=C/c1ccccc1Oc1ccc(Cl)cc1 [1o] | 89.7 | 100 | 27 | – | – | 7.78 | – | –
4 | O=C(N/N=C/c1ccccc1Oc1ccc(Cl)cc1)c1ccco1 [1n] | 39.4 | 37.9 | 30.4 | – | – | 50.6 | – | –
5 | N#Cc1ccc(Oc2ccccc2/C=N/NC(=O)c2ccccc2)cc1 [1f] | 36.9 | 77.2 | 65.9 | – | – | 56.8 | – | –
6 | O=C(N/N=C/c1ccccc1Oc1ccc(Cl)cc1)c1cccnc1 [1m] | 71.8 | 55.5 | 38.1 | – | – | 37.9 | – | –
7 | O=C(N/N=C/c1ccccc1Oc1ccccc1)c1ccco1 [1d] | 49.8 | 31.5 | 9.39 | 31.5 | 9.39 | 44.7 | did not show a significant antimetastatic effect | did not show a significant antimetastatic effect
8 | N#Cc1ccc(Oc2ccccc2/C=N/NC(=O)c2ccco2)cc1 [1i] | 208 | 20.7 | 84.6 | – | – | 31.7 | – | –
9 | O=C(N/N=C/c1ccccc1Oc1ccccc1)c1ccc(Cl)cc1 [1b] | 72.8 | 138 | 25.3 | – | – | 24.4 | – | –
10 | O=C(N/N=C/c1ccccc1Oc1ccccc1)c1ccccc1 [1a] | 28.7 | 53 | 47.8 | – | – | 16.9 | – | –
11 | N#Cc1ccc(Oc2ccccc2/C=N/NC(=O)c2cccnc2)cc1 [1h] | 73 | 65.8 | 78.3 | – | – | 66.9 | – | –
12 | O=C(N/N=C/c1ccccc1Oc1ccc(Cl)cc1)c1ccccc1 [1k] | 122 | 32.7 | 46.4 | – | – | 66.9 | – | –
13 | N#Cc1ccc(Oc2ccccc2/C=N/NC(=O)c2ccc(Cl)cc2)cc1 [1g] | 31.8 | 45.1 | 66.5 | – | – | 62.8 | – | –
14 | Cc1nnsc1C(=O)N/N=C/c1ccccc1Oc1ccccc1 [1e] | 13.4 | 108 | 18.1 | – | – | 87 | did not show a significant antimetastatic effect | did not show a significant antimetastatic effect
15 | O=C(N/N=C/c1ccccc1Oc1ccc(Cl)cc1)c1ccc(Cl)cc1 [1l] | 39.4 | 77.7 | 30.2 | – | – | 14.6 | – | –

Further lines, with some results ahead:

Row | IC50 [1] [µM] | IC50 ([2]; Homo sapiens) [µM] | IC50 ([3]; Homo sapiens, 48 h) [µM] | IC50 [2] [µM] | IC50 [3] [µM] | SMILES | IC50 [4] [µM] | Antimetastatic effect / wound healing rate, scratch assay (A-549 cells) | Antimetastatic effect / wound healing rate, scratch assay (MDA-MB-231 cells)
16 | 72.9 | 23.1 | 41.4 | – | – | N#Cc1ccc(Oc2ccccc2-c2nnc(-c3ccco3)o2)cc1 [2i] | 23.1 | – | –
17 | 102 | 78.6 | 54.3 | – | – | c1ccc(Oc2ccccc2-c2nnc(-c3ccco3)o2)cc1 [2d] | 40.1 | – | –
18 | 78.6 | 38.2 | 78.2 | – | – | N#Cc1ccc(Oc2ccccc2-c2nnc(-c3cccnc3)o2)cc1 [2h] | 23.1 | – | –
19 | 137 | 108 | 124 | – | – | Clc1ccc(Oc2ccccc2-c2nnc(-c3cccnc3)o2)cc1 [2m] | 124 | – | –
20 | 29.3 | 24 | 66 | – | – | c1ccc(Oc2ccccc2-c2nnc(-c3ccccc3)o2)cc1 [2a] | 74.5 | did not show a significant antimetastatic effect | did not show a significant antimetastatic effect
21 | 36.3 | 22.7 | 38.4 | – | – | Clc1ccc(Oc2ccccc2-c2nnc(-c3ccc(Cl)cc3)o2)cc1 [2l] | 51.9 | – | –
22 | 64.8 | 55.7 | 127 | – | – | N#Cc1ccc(Oc2ccccc2-c2nnc(-c3ccc(Cl)cc3)o2)cc1 [2g] | 16 | – | –
23 | 45.8 | 32.7 | 34.2 | – | – | N#Cc1ccc(Oc2ccccc2-c2nnc(-c3ccccc3)o2)cc1 [2f] | 141 | – | –
24 | 28.8 | 30.4 | 25.6 | – | – | Clc1ccc(Oc2ccccc2-c2nnc(-c3ccco3)o2)cc1 [2n] | 35.6 | – | –
25 | 109 | 42.6 | 121 | – | – | c1ccc(Oc2ccccc2-c2nnc(-c3cccnc3)o2)cc1 [2c] | 12.8 | – | –
26 | 152 | 46.9 | 82.2 | – | – | Clc1ccc(-c2nnc(-c3ccccc3Oc3ccccc3)o2)cc1 [2b] | 36 | – | –
27 | 90 | 79.2 | 65.8 | – | – | Clc1ccc(Oc2ccccc2-c2nnc(-c3ccccc3)o2)cc1 [2k] | 58.3 | – | –
